Here are results for eight compounds from US20100035866A1, “NOVEL SUBSTITUTED-1, 1-DIOXO-BENZO[1,2,4]THIADIAZIN-3ONES, PREPARATION METHOD THEREOF, AND PHARMACEUTICAL COMPOSITION CONTAINING THE SAME” (KOREA RESEARCH INSTITUTE OF CHEMICAL TECHNOLOGY, priority 2006, published 2010).

Where only a bound is given, the exact number is not on record here.

For series [1] the following is noted: background art; cited from earlier work.
Series [2] concerns rats. The conditions noted are these: cited from earlier work.
A further series deals with rat. The conditions noted are these: cited from earlier work; for anticonvulsant activity: earlier finding.
Series [3] concerns the target T1, 5-HT6 receptors (Homo sapiens, UniProt P50406). The conditions noted are these: human 5-HT6 receptors, Glennon et al.; cited from earlier work.
For series [4] the following is noted: frontal cortex and dorsal hippocampus; cited from earlier work.
Series [5] deals with rats. In words: Apomorphine-induced disruption of prepulse inhibition (PPI) of acoustic startle. The conditions noted are these: for reversal of disruption of PPI by apomorphine / mean startle amplitude vs apomorphine control group: rats; for reversal of disruption of PPI by apomorphine: pretreatment i.p. 30 min before apomorphine 2 mg/kg; for reversal of disruption of PPI by apomorphine / effect on PPI of compound alone vs vehicle control: i.p.; for effect on PPI of compound alone vs vehicle control: rats, 2.5, 5, 10 & 20 mg/kg, without apomorphine; for mean startle amplitude vs apomorphine control group: administered 30 min before apomorphine.

Series [6] has as its target T1, 5-HT6 receptors. The conditions noted are these: antipsychotics, Roth et al. 1994; cited from earlier work.
Series [7] deals with rats. The note with it: cited from earlier work. The source holds these as a separate data set.
The target in another series is T2, 5-HT1a (Homo sapiens, UniProt P08908).
T2 construct: purchased Euroscreen/BioSignal Packard Inc
T2 sequence (P08908 1-422): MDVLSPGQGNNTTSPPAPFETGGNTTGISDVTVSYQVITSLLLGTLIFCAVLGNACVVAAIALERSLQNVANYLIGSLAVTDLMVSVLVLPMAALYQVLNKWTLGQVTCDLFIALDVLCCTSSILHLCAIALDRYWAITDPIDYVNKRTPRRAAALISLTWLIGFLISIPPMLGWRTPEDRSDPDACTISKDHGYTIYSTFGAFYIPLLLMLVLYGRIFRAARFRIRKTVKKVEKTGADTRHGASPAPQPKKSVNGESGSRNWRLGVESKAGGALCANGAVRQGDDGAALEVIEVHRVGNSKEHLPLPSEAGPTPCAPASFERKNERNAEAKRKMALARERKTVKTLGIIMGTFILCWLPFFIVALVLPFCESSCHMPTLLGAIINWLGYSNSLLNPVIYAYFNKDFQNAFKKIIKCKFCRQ
In words: Radioligand binding, 5-HT receptor family: 5-HT1a ([3H]8-OH-DPAT). The conditions noted are these: CHO-K1 human recombinant receptor, [3H]8-OH-DPAT 0.5 nM; read-out: Binding affinity, IC50 (nM), 5-HT1a.

The next series addresses T3, 5-HT2a (Homo sapiens, UniProt P28223).
T3 construct: purchased Euroscreen/BioSignal Packard Inc
In words: Radioligand binding, 5-HT receptor family: 5-HT2a ([3H]Ketanserin). The note with it: CHO-K1 human recombinant receptor, [3H]Ketanserin 1 nM; read-out: Binding affinity, IC50 (nM), 5-HT2a.

Another series deals with T4, 5-HT2c (Homo sapiens, UniProt P28335).
T4 construct: purchased Euroscreen/BioSignal Packard Inc
T4 sequence (P28335 33-458): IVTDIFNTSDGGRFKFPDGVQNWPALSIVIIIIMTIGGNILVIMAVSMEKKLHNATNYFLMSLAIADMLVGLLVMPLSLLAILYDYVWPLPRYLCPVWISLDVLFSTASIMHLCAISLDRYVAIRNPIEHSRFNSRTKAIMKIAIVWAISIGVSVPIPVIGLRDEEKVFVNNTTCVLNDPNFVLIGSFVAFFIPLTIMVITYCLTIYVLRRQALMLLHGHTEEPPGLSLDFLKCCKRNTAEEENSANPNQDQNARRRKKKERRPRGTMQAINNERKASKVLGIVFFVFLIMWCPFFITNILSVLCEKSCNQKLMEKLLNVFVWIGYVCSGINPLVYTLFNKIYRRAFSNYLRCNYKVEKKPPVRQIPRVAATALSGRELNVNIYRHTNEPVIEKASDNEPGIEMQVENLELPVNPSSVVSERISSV
In words: Radioligand binding, 5-HT receptor family: 5-HT2c ([3H]Mesulergine). The conditions noted are these: CHO-K1 human recombinant receptor, [3H]Mesulergine 1 nM; read-out: Binding affinity, IC50 (nM), 5-HT2c.

The next series addresses T5, 5-HT7 (Homo sapiens, UniProt P34969).
T5 construct: purchased Euroscreen/BioSignal Packard Inc
In words: Radioligand binding, 5-HT receptor family: 5-HT7 ([3H]LSD). The conditions noted are these: CHO-K1 human recombinant receptor, [3H]LSD 3 nM; read-out: Binding affinity, IC50 (nM), 5-HT7. A digest of the protocol:
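Displacement of the radiolabel is read on purchased receptor membranes. Conditions follow the vendor's standard method.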

The target of the next series is D1 (Homo sapiens, UniProt P21728). In words: Dopamine receptor family binding: D1. The conditions noted are these: read-out: Binding affinity, IC50 (nM), D1.
D1, sequence (P21728 whole entry): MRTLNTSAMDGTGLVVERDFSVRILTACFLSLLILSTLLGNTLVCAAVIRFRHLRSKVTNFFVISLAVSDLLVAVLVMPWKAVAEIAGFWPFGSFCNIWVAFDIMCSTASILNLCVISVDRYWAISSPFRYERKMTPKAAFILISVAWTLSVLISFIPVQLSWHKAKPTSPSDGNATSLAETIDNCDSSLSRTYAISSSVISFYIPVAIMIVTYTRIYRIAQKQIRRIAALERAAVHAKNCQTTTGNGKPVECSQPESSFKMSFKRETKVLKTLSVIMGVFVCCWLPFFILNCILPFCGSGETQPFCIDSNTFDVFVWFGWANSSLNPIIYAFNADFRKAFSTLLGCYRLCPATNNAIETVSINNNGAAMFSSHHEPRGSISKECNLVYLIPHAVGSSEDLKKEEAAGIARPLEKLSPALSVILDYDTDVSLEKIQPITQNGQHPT
For the next series, the target named is T6, hD2L receptor (Homo sapiens, UniProt P14416).
T6 construct: purchased BioSignal Packard Inc., Montreal, Canada
T6 sequence (P14416 whole entry): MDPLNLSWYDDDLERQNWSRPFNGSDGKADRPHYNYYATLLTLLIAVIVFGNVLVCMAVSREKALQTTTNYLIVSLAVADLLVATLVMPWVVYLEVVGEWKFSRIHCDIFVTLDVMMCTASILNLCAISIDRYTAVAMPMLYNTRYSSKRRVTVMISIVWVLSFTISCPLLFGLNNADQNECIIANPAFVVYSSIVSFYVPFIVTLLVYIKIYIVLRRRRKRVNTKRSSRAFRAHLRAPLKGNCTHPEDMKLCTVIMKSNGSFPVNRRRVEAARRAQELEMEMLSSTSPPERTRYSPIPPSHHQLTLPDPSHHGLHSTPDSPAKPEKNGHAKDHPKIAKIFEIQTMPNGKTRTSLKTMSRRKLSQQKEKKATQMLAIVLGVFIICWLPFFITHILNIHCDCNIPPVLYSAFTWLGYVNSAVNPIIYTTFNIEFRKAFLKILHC
In words: Dopamine receptor family binding: D2 ([3H]spiperone). The note with it: [3H]spiperone 1 nM; read-out: Binding affinity, IC50 (nM), D2. A digest of the protocol: (§1)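 Competition binding on human receptor membranes: D2L with [3H]spiperone 1 nM in 50 mM Tris-HCl pH 7.4, 10 mM MgCl2, 1 mM EDTA; D4.2 with [3H]YM-09151-2 0.06 nM in Tris-HCl pH 7.4 with MgCl2, EDTA, KCl, CaCl2. 7-8 concentrations in duplicate, three assays; IC50 by nonlinear regression.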

For the next series, the target named is T7, hD3 receptor (Homo sapiens, UniProt P35462).
T7 construct: purchased BioSignal Packard Inc., Montreal, Canada
T7 sequence (P35462 whole entry): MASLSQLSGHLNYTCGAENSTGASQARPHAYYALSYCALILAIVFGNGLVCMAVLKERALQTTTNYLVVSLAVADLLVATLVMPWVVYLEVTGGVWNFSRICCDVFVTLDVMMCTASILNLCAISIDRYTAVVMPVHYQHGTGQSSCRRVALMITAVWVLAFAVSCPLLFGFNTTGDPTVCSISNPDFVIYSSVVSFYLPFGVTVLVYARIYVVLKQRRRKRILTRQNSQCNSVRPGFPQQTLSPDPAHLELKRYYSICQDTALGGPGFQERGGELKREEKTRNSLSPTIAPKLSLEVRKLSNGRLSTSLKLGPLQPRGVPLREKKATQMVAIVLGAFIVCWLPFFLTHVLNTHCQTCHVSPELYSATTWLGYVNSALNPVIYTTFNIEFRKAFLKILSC
In words: Dopamine receptor family binding: D3 ([3H]spiperone). The note with it: [3H]spiperone 1 nM; read-out: Binding affinity, IC50 (nM), D3.

The next series concerns the target T8, hD4.2 receptor (Homo sapiens, UniProt P21917, DEL265-296).
T8 construct: purchased BioSignal Packard Inc., Montreal, Canada
T8 sequence (P21917 with tags, fused parts or gaps DEL265-296): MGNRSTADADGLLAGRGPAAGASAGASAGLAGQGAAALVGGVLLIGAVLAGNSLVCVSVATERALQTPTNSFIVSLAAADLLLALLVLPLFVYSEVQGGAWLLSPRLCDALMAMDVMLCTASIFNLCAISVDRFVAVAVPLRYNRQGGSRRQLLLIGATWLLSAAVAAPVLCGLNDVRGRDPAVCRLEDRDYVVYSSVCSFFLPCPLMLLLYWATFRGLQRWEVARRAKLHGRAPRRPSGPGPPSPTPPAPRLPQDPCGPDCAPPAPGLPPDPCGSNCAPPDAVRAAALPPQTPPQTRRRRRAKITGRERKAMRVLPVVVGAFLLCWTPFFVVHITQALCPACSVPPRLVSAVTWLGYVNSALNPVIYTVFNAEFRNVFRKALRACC
In words: Dopamine receptor family binding: D4 ([3H]YM-09151-2). The note with it: [3H]YM-09151-2 0.06 nM; read-out: Binding affinity, IC50 (nM), D4. A digest of the protocol:
as §1

A further series deals with mice. In words: Rotarod deficit. The conditions noted are these: mouse, in vivo. The method, then: The mouse was placed on a 1 inch diameter knurled plastic rod rotating at 6 rpm (Ugo-Basile, Milano, Italy), and the rotarod deficit (%) was obtained by counting the number of animals fallen from the rotating rod within 1 min (Dunham et al., 1957) at 30, 60, 90 and 120 min after the injection of test compound.
On the technique in general: Falling from the rotarod earlier than controls is read as motor impairment.

Series [8] has as its target Human serotonin 5-HT6 receptor (Homo sapiens, UniProt P50406). In words: [3H]LSD binding assay on cloned 5-HT6 receptor. The conditions noted are these: IC50 (nM).
Series [9] relates to HeLa cells transfected with the human 5-HT6 receptor. In words: Cytotoxicity in HeLa cells of the cAMP assay. Type of series: cell-based. The note with it: at the concentrations tested (0.001-10 μM). On the technique in general: Cyclic AMP is a second messenger, typically raised through Gs and lowered through Gi signalling.
The target in series [10] is T1, 5-HT6 receptors. In words: Adenylyl cyclase activity (cAMP accumulation) in HeLa cells transfected with human 5-HT6 receptor.
Setting [11] is: Binding affinity, 5-HT6, Table 4.
Where [12] appears, read: binding affinity to the 5-HT6 receptor, Table 2, 1.87 nM [3H]LSD, cloned human receptor membranes from Sf21 cells, 37° C. 60 min.
The mark [13] stands for this setting: HeLa, read-out: inhibition of 0.3 μM serotonin (5-HT)-induced increase in cAMP levels.

T1 sequence (P50406 whole entry): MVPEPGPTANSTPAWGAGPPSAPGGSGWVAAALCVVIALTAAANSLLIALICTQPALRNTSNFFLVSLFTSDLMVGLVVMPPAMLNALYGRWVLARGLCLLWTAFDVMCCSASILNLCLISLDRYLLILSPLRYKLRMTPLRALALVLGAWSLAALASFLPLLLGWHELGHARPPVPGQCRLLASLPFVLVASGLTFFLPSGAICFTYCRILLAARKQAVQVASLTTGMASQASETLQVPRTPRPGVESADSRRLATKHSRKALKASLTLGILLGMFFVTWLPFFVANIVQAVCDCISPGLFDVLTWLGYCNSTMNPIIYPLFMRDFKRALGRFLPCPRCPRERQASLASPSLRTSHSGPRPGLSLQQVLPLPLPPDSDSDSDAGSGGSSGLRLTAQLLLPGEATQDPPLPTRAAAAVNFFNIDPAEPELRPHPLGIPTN
Human serotonin 5-HT6 receptor, sequence (P50406 whole entry): as above
T3 sequence (P28223 whole entry): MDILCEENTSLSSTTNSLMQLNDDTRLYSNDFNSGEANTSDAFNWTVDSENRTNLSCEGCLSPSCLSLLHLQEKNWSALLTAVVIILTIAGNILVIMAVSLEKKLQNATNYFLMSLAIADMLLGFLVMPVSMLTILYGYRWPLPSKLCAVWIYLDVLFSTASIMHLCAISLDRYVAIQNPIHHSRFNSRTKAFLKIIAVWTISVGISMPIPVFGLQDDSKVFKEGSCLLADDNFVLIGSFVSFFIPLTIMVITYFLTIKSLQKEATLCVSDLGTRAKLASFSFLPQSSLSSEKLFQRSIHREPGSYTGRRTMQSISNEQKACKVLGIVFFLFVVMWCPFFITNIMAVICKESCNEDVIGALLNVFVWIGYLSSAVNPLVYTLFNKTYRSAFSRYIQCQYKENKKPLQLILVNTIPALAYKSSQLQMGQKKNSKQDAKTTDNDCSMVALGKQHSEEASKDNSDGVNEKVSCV
T5 sequence (P34969 whole entry): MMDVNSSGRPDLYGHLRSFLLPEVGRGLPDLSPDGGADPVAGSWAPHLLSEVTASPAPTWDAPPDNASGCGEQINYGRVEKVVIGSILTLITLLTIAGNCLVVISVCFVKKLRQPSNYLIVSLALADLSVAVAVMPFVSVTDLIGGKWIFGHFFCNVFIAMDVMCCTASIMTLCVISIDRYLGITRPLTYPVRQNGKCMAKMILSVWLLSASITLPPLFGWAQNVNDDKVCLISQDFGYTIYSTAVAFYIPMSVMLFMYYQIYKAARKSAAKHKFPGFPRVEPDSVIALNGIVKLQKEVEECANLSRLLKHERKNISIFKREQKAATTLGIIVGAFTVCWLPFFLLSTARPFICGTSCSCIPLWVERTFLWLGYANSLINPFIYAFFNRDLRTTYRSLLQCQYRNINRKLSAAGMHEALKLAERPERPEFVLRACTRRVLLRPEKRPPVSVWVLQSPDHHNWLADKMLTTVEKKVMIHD

Regarding `COc1ccc(S(=O)(=O)Nc2cc(Br)cc(F)c2Br)cc1N1CCNCC1` [SB-357134], in [1], the “bioavailability (in words)” value is “excellent oral bioavailability” and the “blood clearance (in words)” value is on record as “low clearance rate”. Moreover, the “retention of a previously learned task in water maze” value in the series with rats [2] is listed as “significant improvement”. Further, the “seizure threshold (rat maximal electroseizure threshold)” value in the series on rat (oral administration) is “potent and dose-dependent increase”.

Turning to `COc1ccc2c(c1)c(CCN(C)C)cn2S(=O)(=O)c1ccccc1` [MS-245], at 5-HT6 receptors [3], the “pA2, antagonist” value was 8.88.

For the compound `COc1ccc(NS(=O)(=O)c2sc3ccc(Cl)cc3c2C)cc1N1CCNCC1` [SB-271046, reference compound], in the series on rats [2], the “retention of a previously learned task in water maze” value was “significant improvement”. In addition, the extracellular glutamate levels result in series [4] is “increased extracellular glutamate levels in frontal cortex and dorsal hippocampus by several fold”. In addition, the anticonvulsant activity result in the series with rat is on record as “possess anticonvulsant activity”. For the same compound, the “reversal of disruption of PPI by apomorphine” value (from here on “reversal of disruption of PPI”) in the series with rats [5] is recorded as “did not reverse”.

As to `CN(C)CC/C=C1/c2ccccc2Sc2ccc(Cl)cc21` [chlorprothixene], the “binding affinity at 5-HT6 receptors (in words)” value at 5-HT6 receptors [6] is on record as “high affinity”.

In the case of `CN(C)CCCN1c2ccccc2Sc2ccc(Cl)cc21` [chlorpromazine], the “binding affinity at 5-HT6 receptors (in words)” value at 5-HT6 receptors [6] was “high affinity”.

In the case of `CNc1cc(NS(=O)(=O)c2ccc(N)cc2)nc(NC)n1` [Ro 04-6790], the anticonvulsant activity entry in the series with rat is given as “possess anticonvulsant activity”. Also, the food intake result with rats [7] was “decreased food intake”.

As to `CN1CCN(c2cc(Cl)cc3c2S(=O)(=O)N(Cc2ccccc2)C(=O)N3Cc2ccccc2)CC1` [Example 1, 2,4-Dibenzyl-6-chloro-8-(4-methyl-piperazin-1-yl)-1,1-dioxo-1,4-dihydro-2H-1λ^6-benzo[1,2,4]thiadiazin-3-one], the melting point (in general, the temperature of the solid-liquid transition) fell in the range of 100 to 101 °C. For the same compound, at 5-HT1a, the IC50 (as a rule, the concentration that gives 50% inhibition) was found to be 997 nM. Also, at 5-HT2a, the 50% inhibitory concentration (IC50) is 354 nM. Besides, the IC50 at 5-HT2c turned out to be 785 nM. For the same compound, the half-maximal inhibitory concentration (IC50) at 5-HT7 was found to be 6580 nM. The IC50 on D1 was found to be 3050 nM. Besides, at hD2L receptor, the IC50 was 5810 nM. Besides, at hD3 receptor, the 50% inhibitory concentration (IC50) came out at 633 nM. At hD4.2 receptor, the IC50 was over 10000 nM. The “rotarod ataxia / rotarod deficit (in words)” value in the series on mice was “did not show any rotarod ataxia”. In the series on mice (ip), the “median neurotoxic dose (TD50), rotarod” value was “more than 300 □/□”. This compound gave an IC50 in series [8] (setting [11]) of 1.9 nM. Moreover, the IC50 in [8] (setting [12]) came to 1.9 nM. In addition, in the series on rats [5], the “effect on PPI of compound alone vs vehicle control” value was “no significant effect”, the “mean startle amplitude vs apomorphine control group” value is given as “no significant differences” and the “reversal of disruption of PPI” value was “reversed significantly”.

On to `O=C1N(Cc2ccccc2)c2cc(Cl)cc(N3CCNCC3)c2S(=O)(=O)N1Cc1ccccc1` [Example 44, 2,4-Dibenzyl-6-chloro-1,1-dioxo-8-piperazin-1-yl-1,4-dihydro-2H-1λ^6-benzo[1,2,4]thiadiazin-3-one], for which the melting point lay within 108 to 109 °C. Besides, the half-maximal inhibitory concentration (IC50) on 5-HT1a was determined as 5400 nM. Besides, the IC50 on 5-HT2a came to 1160 nM. The concentration for half-maximal inhibition (IC50) on 5-HT2c was determined as 1880 nM. Further, the IC50 on 5-HT7 was over 10000 nM. For the same compound, the concentration for half-maximal inhibition (IC50) on D1 was 6390 nM. The 50% inhibitory concentration (IC50) on hD2L receptor was determined as 667 nM. Also, the IC50 on hD3 receptor was determined as 1210 nM. The IC50 at hD4.2 receptor was over 10000 nM. Also, the cytotoxicity result in [9] is “did not show any cytotoxicity”. Besides, in the series with mice, the “TD50 relative to effective doses obtained in the PPI test” value is reported as “about 8 times” and the “rotarod ataxia / rotarod deficit (in words)” value is on record as “moderate rotarod deficit”. The same compound returned an IC50 in [8] (setting [11]) of 1 nM. Moreover, the IC50 in series [8] (setting [12]) came to 0.9 nM. Further, in the series with rats [5], the “effect on PPI of compound alone vs vehicle control” value is reported as “no significant effect”, the “mean startle amplitude vs apomorphine control group” value is given as “no significant differences” and the “reversal of disruption of PPI” value was “reversed significantly”. At 5-HT6 receptors [10], this compound gave an IC50 of 67.8 nM. Moreover, the “5-HT-induced increase in cAMP level inhibited (in words)” value on 5-HT6 receptors [10] (FIG. 1) was “inhibited”. In addition, on 5-HT6 receptors [10] (setting [13]), the inhibition (commonly how much of the control response was suppressed) at 0.001 µM turned out to be 0%, the inhibition at 0.01 µM was found to be 8%, the inhibition at 0.1 µM came out at 63% and the inhibition at 1 µM stood at 100%. Also, the inhibition at 10 µM at 5-HT6 receptors [10] (setting [13]) was 100%.
